These results are taken from patent publication US11555041B2, “Bridged bicyclic inhibitors of menin-MLL and methods of use” (Kura Oncology, Inc., priority 2016, dated 2023).

One may read the IC50 as the concentration needed to halve the response being measured.

This test deals with T1, menin-MLL interaction (Menin MLL 4-43) (Homo sapiens, UniProt O00255).
T1 sequence (O00255 1-610): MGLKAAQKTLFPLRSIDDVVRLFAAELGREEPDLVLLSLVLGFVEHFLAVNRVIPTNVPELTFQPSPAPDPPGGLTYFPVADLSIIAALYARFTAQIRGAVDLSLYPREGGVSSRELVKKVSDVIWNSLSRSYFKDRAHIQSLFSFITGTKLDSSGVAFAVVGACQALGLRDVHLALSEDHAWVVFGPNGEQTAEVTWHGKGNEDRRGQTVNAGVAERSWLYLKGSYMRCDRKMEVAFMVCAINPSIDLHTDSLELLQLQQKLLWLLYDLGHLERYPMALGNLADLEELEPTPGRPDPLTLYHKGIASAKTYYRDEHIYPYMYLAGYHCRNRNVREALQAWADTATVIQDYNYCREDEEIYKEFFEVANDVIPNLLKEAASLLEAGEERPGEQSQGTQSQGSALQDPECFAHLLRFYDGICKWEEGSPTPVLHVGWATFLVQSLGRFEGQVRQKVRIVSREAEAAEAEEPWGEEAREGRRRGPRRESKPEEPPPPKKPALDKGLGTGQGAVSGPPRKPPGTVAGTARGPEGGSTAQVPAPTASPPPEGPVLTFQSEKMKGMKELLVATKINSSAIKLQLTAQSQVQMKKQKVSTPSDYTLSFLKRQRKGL
Kind of test: Fluorescence polarization (FP) competition assay. The settings on record: fluorescence polarization assay; read-out: Menin MLL 4-43 IC50. It is filed as binding. In general terms: Fluorescence polarisation rises when a labelled molecule tumbles more slowly, as on binding a larger partner.

`Cc1c(CN2CCC(Nc3ncnc4sc(CC(F)(F)F)cc34)CC2)ccc2c1cc(C#N)n2CC12CC(NC(=O)CN)(C1)C2` (single isomer, unassigned) [Compound 61]: the IC50 fell in the range of 250 to 1000 nM. Then `C=CC(=O)NC12CC(Cn3c(C#N)cc4c(C)c(CN5CCC(Nc6ncnc7sc(CC(F)(F)F)cc67)CC5)ccc43)(C1)C2` [Compound 1], with 50 to 250 nM; and `CC(=O)NC12CC(Cn3c(C#N)cc4c(C)c(CN5CCC(Nc6ncnc7sc(CC(F)(F)F)cc67)CC5)ccc43)(C1)C2` [Compound 2], with 50 to 250 nM. Then `Cc1c(CN2CCC(Nc3ncnc4sc(CC(F)(F)F)cc34)CC2)ccc2c1cc(C#N)n2CC12CC(N(C)C)(C1)C2` [Compound 5], with 250 to 1000 nM; and `Cc1c(CN2CCC(Nc3ncnc4sc(CC(F)(F)F)cc34)CC2)ccc2c1cc(C#N)n2CC12CC(NC(=O)C(F)(F)F)(C1)C2` [Compound 6], with 250 to 1000 nM. Then `CNC(=O)NC12CC(Cn3c(C#N)cc4c(C)c(CN5CCC(Nc6ncnc7sc(CC(F)(F)F)cc67)CC5)ccc43)(C1)C2` [Compound 7], with under 50 nM.

For `Cc1c(CN2CCC(Nc3ncnc4sc(CC(F)(F)F)cc34)CC2)ccc2c1cc(C#N)n2CC12CC(NC(=O)C(C)C)(C1)C2` [Compound 8], the half-inhibitory concentration (IC50) lay in the range of 50 to 250 nM. As for `Cc1c(CN2CCC(Nc3ncnc4sc(CC(F)(F)F)cc34)CC2)ccc2c1cc(C#N)n2CC12CC(NC(=O)C3CC3)(C1)C2` [Compound 9], the 50% inhibitory concentration (IC50) lay within 50 to 250 nM. Then `CNC12CC(Cn3c(C#N)cc4c(C)c(CN5CCC(Nc6ncnc7sc(CC(F)(F)F)cc67)CC5)ccc43)(C1)C2` [Compound 10], with 50 to 250 nM.

Turning to `Cc1c(CN2CCC(Nc3ncnc4sc(CC(F)(F)F)cc34)CC2)ccc2c1cc(C#N)n2CCC12CC(N)(C1)C2` [Compound 11], the IC50 lay in the range of 250 to 1000 nM.

As to `CCC(=O)NC12CC(CCn3c(C#N)cc4c(C)c(CN5CCC(Nc6ncnc7sc(CC(F)(F)F)cc67)CC5)ccc43)(C1)C2` [Compound 12], the 50% inhibitory concentration (IC50) was over 1000 nM. The result for `Cc1c(CN2CCC(Nc3ncnc4sc(CC(F)(F)F)cc34)CC2)ccc2c1cc(C#N)n2CC12CC(N)(C1)C2` [Compound 13] reads 50 to 250 nM; that for `C=CC(=O)NC12CC(CCn3c(C#N)cc4c(C)c(CN5CCC(Nc6ncnc7sc(CC(F)(F)F)cc67)CC5)ccc43)(C1)C2` [Compound 14], 250 to 1000 nM; that for `Cc1c(CN2CCC(Nc3ncnc4sc(CC(F)(F)F)cc34)CC2)ccc2c1cc(C#N)n2CC12CC(NC=O)(C1)C2` [Compound 15], under 50 nM. The result for `Cc1c(CN2CCC(Nc3ncnc4sc(CC(F)(F)F)cc34)CC2)ccc2c1cc(C#N)n2CC12CC(NC(=O)CO)(C1)C2` [Compound 16] reads 50 to 250 nM; that for `Cc1c(CN2CCC(Nc3ncnc4sc(CC(F)(F)F)cc34)CC2)ccc2c1cc(C#N)n2CC12CC(NC(=O)CN)(C1)C2` [Compound 17], under 50 nM.

`CNC(=O)C12CC(Cn3c(C#N)cc4c(C)c(CN5CCC(Nc6ncnc7sc(CC(F)(F)F)cc67)CC5)ccc43)(C1)C2` [Compound 18]: the IC50 is 50 to 250 nM. Then `Cc1c(CN2CCC(Nc3ncnc4sc(CC(F)(F)F)cc34)CC2)ccc2c1cc(C#N)n2CC12CC(C(=O)O)(C1)C2` [Compound 20], with over 1000 nM; and `C=CC(=O)N[C@H]1C[C@@H](Cn2c(C#N)cc3c(C)c(CN4CCC(Nc5ncnc6sc(CC(F)(F)F)cc56)CC4)ccc32)C1` [Compound 29], with 50 to 250 nM; and `C=CC(=O)N[C@H]1C[C@H](Cn2c(C#N)cc3c(C)c(CN4CCC(Nc5ncnc6sc(CC(F)(F)F)cc56)CC4)ccc32)C1` [Compound 30], with 50 to 250 nM. As to `CC(=O)N[C@H]1C[C@@H](Cn2c(C#N)cc3c(C)c(CN4CCC(Nc5ncnc6sc(CC(F)(F)F)cc56)CC4)ccc32)C1` [Compound 31], the IC50 lay within 250 to 1000 nM. The result for `CC(=O)N[C@H]1C[C@H](Cn2c(C#N)cc3c(C)c(CN4CCC(Nc5ncnc6sc(CC(F)(F)F)cc56)CC4)ccc32)C1` [Compound 32] reads 50 to 250 nM; that for `Cc1c(CN2CCC(Nc3ncnc4sc(CC(F)(F)F)cc34)CC2)ccc2c1cc(C#N)n2CC12CC(NC(=O)CNC=O)(C1)C2` [Compound 33], 250 to 1000 nM; that for `Cc1c(CN2CCC(Nc3ncnc4sc(CC(F)(F)F)cc34)CC2)ccc2c1cc(C#N)n2CC12CC(NC(=O)c3ccc[nH]3)(C1)C2` [Compound 34], 50 to 250 nM. Then `Cc1c(CN2CCC(Nc3ncnc4sc(CC(F)(F)F)cc34)CC2)ccc2c1cc(C#N)n2CC12CC(NC(=O)c3cccc(=O)[nH]3)(C1)C2` [Compound 35], with under 50 nM.

With `Cc1c(CN2CCC(Nc3ncnc4sc(CC(F)(F)F)cc34)CC2)ccc2c1cc(C#N)n2CC12CC(NC(=O)CNS(C)(=O)=O)(C1)C2` [Compound 36], the IC50 was 50 to 250 nM.

In the case of `Cc1c(CN2CCC(Nc3ncnc4sc(CC(F)(F)F)cc34)CC2)ccc2c1cc(C#N)n2CC12CC(C(=O)NCCN)(C1)C2` [Compound 37], the IC50 is under 50 nM.

Take `Cc1c(CN2CCC(Nc3ncnc4sc(CC(F)(F)F)cc34)CC2)ccc2c1cc(C#N)n2CC12CC(NC(=O)c3cnc[nH]3)(C1)C2` [Compound 38]: the IC50 is 50 to 250 nM. Then `Cc1c(CN2CCC(Nc3ncnc4sc(CC(F)(F)F)cc34)CC2)ccc2c1cc(C#N)n2CC12CC(NC(=O)CCN)(C1)C2` [Compound 39], with under 50 nM; and `Cc1c(CN2CCC(Nc3ncnc4sc(CC(F)(F)F)cc34)CC2)ccc2c1cc(C#N)n2CC12CC(NC(=O)CN(C)C)(C1)C2` [Compound 40], with under 50 nM.

Regarding `Cc1c(CN2CCC(Nc3ncnc4sc(CC(F)(F)F)cc34)CC2)ccc2c1cc(C#N)n2CC12CC(NC(=O)C3CCCN3)(C1)C2` (centres unmarked) [Compound 41], the 50% inhibitory concentration (IC50) is under 50 nM.

As to `Cc1c(CN2CCC(Nc3ncnc4sc(CC(F)(F)F)cc34)CC2)ccc2c1cc(C#N)n2CC12CC(NC(=O)CNC3CC3)(C1)C2` [Compound 42], the IC50 was in the range of 50 to 250 nM. Then `COCC(=O)NC12CC(Cn3c(C#N)cc4c(C)c(CN5CCC(Nc6ncnc7sc(CC(F)(F)F)cc67)CC5)ccc43)(C1)C2` [Compound 43], with 50 to 250 nM; and `CNCC(=O)NC12CC(Cn3c(C#N)cc4c(C)c(CN5CCC(Nc6ncnc7sc(CC(F)(F)F)cc67)CC5)ccc43)(C1)C2` [Compound 48], with under 50 nM; and `Cc1c(CN2CCC(Nc3ncnc4sc(CC(F)(F)F)cc34)CC2)ccc2c1cc(C#N)n2CC12CC(N(C3CC3)C3CC3)(C1)C2` [Compound 49], with over 1000 nM. The result for `CCC(=O)NC12CC(Cn3c(C#N)cc4c(C)c(CN5CCC(Nc6nc(N)nc7sc(CC(F)(F)F)cc67)CC5)ccc43)(C1)C2` [Compound 54] reads under 50 nM; that for `CCC(=O)NC12CC(Cn3c(C#N)cc4c(C)c(CN5CCC(Nc6nc(C)nc7sc(CC(F)(F)F)cc67)CC5)ccc43)(C1)C2` [Compound 55], 50 to 250 nM. The result for `Cc1c(CN2CCC(Nc3ncnc4sc(CC(F)(F)F)cc34)CC2)ccc2c1cc(C#N)n2CC12CC(NC(=O)CN3CCOCC3)(C1)C2` [Compound 56] reads under 50 nM; that for `Cc1c(CN2CCC(Nc3ncnc4sc(CC(F)(F)F)cc34)CC2)ccc2c1cc(C#N)n2CC12CC(NC(=O)CN3CCCC3)(C1)C2` [Compound 57], under 50 nM.

Turning to `Cc1c(CN2CCC(Nc3ncnc4sc(CC(F)(F)F)cc34)CC2)ccc2c1cc(C#N)n2CC12CC(NC(=O)C3CCCN3C)(C1)C2` (centres unmarked) [Compound 58], the IC50 was under 50 nM. Then `Cc1c(CN2CCC(Nc3ncnc4sc(CC(F)(F)F)cc34)CC2)ccc2c1cc(C#N)n2CC12CC(NC(=O)C(C)(C)N)(C1)C2` [Compound 59], with under 50 nM; and `Cc1c(CN2CCC(Nc3ncnc4sc(CC(F)(F)F)cc34)CC2)ccc2c1cc(C#N)n2CC12CC(NC(=O)C3(N)CC3)(C1)C2` [Compound 60], with 50 to 250 nM. The result for `Cc1c(CN2CCC(Nc3ncnc4sc(CC(F)(F)F)cc34)CC2)ccc2c1cc(C#N)n2CC12CC(NC(=O)C(N)C(C)C)(C1)C2` (centres unmarked) [Compound 62] reads under 50 nM. Then `Cc1c(CN2CCC(Nc3ncnc4sc(CC(F)(F)F)cc34)CC2)ccc2c1cc(C#N)n2CC12CC(NC(=O)C(C)(C)O)(C1)C2` [Compound 63], with 50 to 250 nM; and `Cc1c(CN2CCC(Nc3ncnc4sc(CC(F)(F)F)cc34)CC2)ccc2c1cc(C#N)n2CC12CC(NC(=O)C(C)N)(C1)C2` (centres unmarked) [Compound 64], with under 50 nM; and `Cc1c(CN2CCC(Nc3ncnc4sc(CC(F)(F)F)cc34)CC2)ccc2c1cc(C#N)n2CC12CC(NC(=O)C(N)c3ccccc3)(C1)C2` (centres unmarked) [Compound 65], with under 50 nM. As to `Cc1c(CN2CCC(Nc3ncnc4sc(CC(F)(F)F)cc34)CC2)ccc2c1cc(C#N)n2CC12CC(NC(=O)C(C)O)(C1)C2` (centres unmarked) [Compound 66], the IC50 was in the range of 50 to 250 nM. On to `Cc1c(CN2CCC(Nc3ncnc4sc(CC(F)(F)F)cc34)CC2)ccc2c1cc(C#N)n2CC12CC(NC(=O)C(O)CO)(C1)C2` (centres unmarked) [Compound 67], for which the IC50 was 50 to 250 nM. On to `Cc1c(CN2CCC(Nc3ncnc4sc(CC(F)(F)F)cc34)CC2)ccc2c1cc(C#N)n2CC12CC(NC(=O)C3(O)CC3)(C1)C2` [Compound 68], for which the half-maximal inhibitory concentration (IC50) was in the range of 50 to 250 nM. The result for `Cc1c(CN2CCC(Nc3ncnc4sc(CC(F)(F)F)cc34)CC2)ccc2c1cc(C#N)n2CC12CC(NC(=O)C(N)C(F)(F)F)(C1)C2` (centres unmarked) [Compound 69] reads 250 to 1000 nM.
